In general, IC50 refers to the concentration needed to halve the response being measured.

The source made the active and inactive calls.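 How the source made its calls: active means IC50 for blocking malaria parasite growth in red cells at or below 10 µM; inactive means the rest.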

The test system of the assay is P. falciparum 3D7 in RBCs, 3H-hypoxanthine incorporation, 48 h. The experiment in a line: antimalarial activity in infected erythrocytes – cell-based, radiolabel, RBCs, powder samples, M18AAP inhibitor project, late-stage follow-up (AID 489011).
Consider `Cc1cc(C)n2c(=S)[nH]nc2n1`, for which the IC50 is > 25 µM (inactive). Consider `Br/C(C=Nn1cnnc1)=C\c1ccccc1`, for which the IC50 is 11 µM (inactive).

As for `Cc1cc(C)cc(C(=O)n2cnnc2N)c1`, the IC50 is 7 µM. Regarding `Oc1ccc(CCNc2c3ccccc3nc3ccccc23)cc1O`, the IC50 is less than 1.6 µM. Regarding `CCC(C)c1ccc(O)c(N)c1` (configuration not stated), the IC50 is 6 µM.

For `Oc1ccc(-c2csc(-c3ccccc3)n2)cc1O`, the IC50 was > 25 µM (inactive). Then `O=C(COc1ccccc1C(=O)N/N=C/c1ccc(O)c(O)c1)N/N=C/c1ccc(O)c(O)c1`, with 6 µM.

The record behind these values is PubChem BioAssay AID489011 (The Scripps Research Institute Molecular Screening Center, 2010).
